# Columns and labels:
# [1] = biological target: human prostatic acid phosphatase (PAP) (Homo sapiens, UniProt P15309); assay: Time-dependent inactivation of prostatic acid phosphatase (residual activity with PNPP); type: biochemical; conditions: for time-dependent inactivation of PAP: incubation with PAP (2 μg/mL), 100 mM sodium acetate buffer pH 5.0, 25° C.; for protection of PAP against inactivation by FMPP: competitive inhibitors of PAP added
# Experimental: Reactions were performed by incubating 1 or 9 with PAP (2 μg/mL) in 100 mM sodium acetate buffer pH 5.0 at 25° C. Residual PAP activity was determined by removing 20 μL aliquots and adding them to a 1 mL solution of 3.0 mM p-nitrophenyl phosphate (PNPP) in 100 mM sodium acetate buffer pH 5.0. After 5 minutes in PNPP, the reactions were quenched with 100 μL of 1.25N NaOH. p-Nitrophenoxide concentration was quantitated from the absorbance at 405 nm, using an extinction coefficient of 18,000 M-1 cm-1. (A) Residual PAP activity after incubation with varying concentrations of 1; 5.0 mM (filled circles), 500 μM (open squares), 125 μM (open triangles), 70 μM (filled diamonds), and 50 μM (open circles). (B) Residual PAP activity after treatment with 6.6 mM FMPP (open triangles), or 23 mM of the phosphonate (15 X Ki) (closed circles).
# In this experimental, human prostatic acid phosphatase (PAP) was used as a model enzyme. […] This phosphatase is an important diagnostic marker for prostate cancer, and there is evidence that it may be involved in the regulation of androgen receptor activity in prostate cells.
# YOP 51 = YOP 51 (Yersinia enterocolitica, UniProt P15273); assay: Time-dependent inactivation testing with YOP 51; type: biochemical; conditions: incubated in a fashion similar to FIG. 1
# Chain of YOP 51 (P15273 whole entry): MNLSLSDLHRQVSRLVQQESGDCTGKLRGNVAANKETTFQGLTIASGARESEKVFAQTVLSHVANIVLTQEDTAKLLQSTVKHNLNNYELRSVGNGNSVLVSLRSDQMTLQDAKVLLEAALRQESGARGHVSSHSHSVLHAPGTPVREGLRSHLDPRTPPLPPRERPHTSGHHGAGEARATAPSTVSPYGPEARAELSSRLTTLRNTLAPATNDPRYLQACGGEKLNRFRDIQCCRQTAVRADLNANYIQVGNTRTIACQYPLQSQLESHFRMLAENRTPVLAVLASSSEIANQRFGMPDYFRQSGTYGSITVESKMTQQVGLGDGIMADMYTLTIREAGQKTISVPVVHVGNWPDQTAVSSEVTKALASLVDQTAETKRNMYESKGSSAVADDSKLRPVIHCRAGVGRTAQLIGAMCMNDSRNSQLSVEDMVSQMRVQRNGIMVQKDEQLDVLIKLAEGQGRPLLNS
# Chain of human prostatic acid phosphatase (PAP) (P15309 33-386): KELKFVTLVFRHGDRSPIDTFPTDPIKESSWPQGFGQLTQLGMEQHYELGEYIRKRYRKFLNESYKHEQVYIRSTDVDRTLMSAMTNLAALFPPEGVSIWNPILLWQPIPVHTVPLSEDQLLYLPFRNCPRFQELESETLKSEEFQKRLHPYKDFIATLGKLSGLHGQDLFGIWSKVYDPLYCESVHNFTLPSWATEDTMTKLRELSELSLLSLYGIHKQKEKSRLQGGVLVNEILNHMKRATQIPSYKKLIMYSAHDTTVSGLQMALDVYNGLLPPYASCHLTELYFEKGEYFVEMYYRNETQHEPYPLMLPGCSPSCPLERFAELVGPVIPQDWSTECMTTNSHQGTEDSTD
compound,measurement,setting,value
"O=P(O)(O)Oc1ccc(CF)cc1 [FMPP, 4-(fluoromethyl)phenyl phosphate]",KI (inactivation),"[1]; read-out: Ki (saturation kinetics of the inactivation process), purified PAP",150 µM
"C=C(Br)OP(=O)(OCC)OCC [XVI, Diethyl 1-Bromovinyl Phosphate]",inactivation of YOP 51,YOP 51,succesful inactivation of the enzyme
O=P(O)(O)Oc1ccc(CBr)cc1 [bromo analogue of FMPP],time-dependent inactivation of PAP,[1],proved to inactivate the PAP enzyme
O=P(O)(O)Oc1ccc(CCl)cc1 [chloro analogue of FMPP],time-dependent inactivation of PAP,[1],proved to inactivate the PAP enzyme
"O=P(O)(O)O [inorganic phosphate, reference compound]",protection of PAP against inactivation by FMPP,[1],protect against inactivation
O=[N+]([O-])c1cc(CCl)ccc1OP(=O)(O)O [ortho-nitro chloro analogue of FMPP],potency of PAP inactivation relative to FMPP or its analogues,[1],substantially greater potency
same,time-dependent inactivation of PAP,[1],succesfully inactivated the PAP enzyme
"O=C(O)C(O)C(O)C(=O)O (centres unmarked) [tartaric acid, reference compound]",protection of PAP against inactivation by FMPP,[1],protect against inactivation

# Reference: patent US5714361A, “Phosphatase/phosphodiesterase enzyme inhibitors and methods” (priority 1994, dated 1998)
